In PMC8605905 (Oxidative Medicine and Cellular Longevity, 2021):

Columns and labels:
[1] = test system: CRE-GFP 293 cells; assay: CRE-GFP 293 reporter cell assay (flow cytometry); assay type: cell-based, Human; conditions: 10 μM, 5 h, in the presence of Ca2+ ionophore (2 μM)
Text: Using the pCRE-MetLuc2-Reporter plasmid (Clontech, Mountain View, CA, USA) as a template, the DNA fragment containing the cAMP response element (CRE) motifs and TATA-like promoter (PTAL) flanked by MluI and AgeI restriction sites was amplified by PCR using sense ([…], MluI site underlined) and antisense ([…], AgeI site underlined) primers. The amplified CRE-PTAL promoter fragment was cloned into pGEM-T Easy (Promega, Madison, WI, USA) and sequenced. The CRE-PTAL-containing MluI/AgeI fragment and GFP-containing AgeI/NotI fragment (from pEGFP-N1; Clontech) were subcloned into MluI- and NotI-digested pcDNA5/FRT/TO (Novagen, Madison, WI, USA). The resulting construct with CRE-PTAL-driving GFP was used to establish 293 GFP reporter cells by targeting insertion into Flp-In-293 cells according to the supplier's instructions (Invitrogen). The cells were grown in a medium containing 5 μg/ml blasticidin and 100 μg/ml hygromycin.
On day 1, CRE-GFP 293 cells were seeded into 48-well plates (5 × 10^4/well). After 24 h, cells were treated with Ca^2+ ionophore (2 μM) (Sigma-Aldrich) for 0–24 h. Cell viability was measured using 3,(4,5-dimethylthiazol-2-yl)-2,5-diphenyltetrazolium bromide (MTT) assay (Sigma-Aldrich). The absorbance of the insoluble purple formazan dye was quantified at 570 nm on a μQuant microplate spectrophotometer (Bio-Tek). In addition, the cells were treated with the Ca^2+ ionophore A23187 (0.5–10 μM) (Sigma-Aldrich) for 5 h, followed by analysis of GFP fluorescence by flow cytometry (Becton–Dickinson, Franklin Lakes, NJ, USA) with excitation/emission wavelengths at 488/507 nm. To monitor CREB activation, cells were treated with forskolin or coumarin-chalcone derivatives (5–10 μM) in the presence or absence of Ca^2+ ionophore (2 μM) for 5 h, and GFP fluorescence was analysed.
To monitor the cAMP-mediated signal transduction pathway, CRE-GFP 293 cells in 6-well plates (1 × 10^6/well) were pretreated with kinase inhibitor H-89 (LC Laboratories, Woburn, MA, USA), KN-62 (Cayman Chemical, Ann Arbor, MI, USA), U0126 (LC Laboratories), or wortmannin (LC Laboratories) (10 μM) for 4 h before forskolin or LM-021 (10 μM) addition for 5 h. GFP fluorescence/protein and total/phosphorylated PKA, CaMKII, ERK, PI3K, and CREB levels were examined. In addition, Aβ-GFP or ∆K280 tauRD-DsRed SH-SY5Y cells were treated with retinoic acid (10 μM) on day 1, followed by the addition of LM-021 (5 or 10 μM) and doxycycline (5 or 2 μg/ml) on day 2, as described. Kinase inhibitors (10 μM) were added on day 6. On day 8, the cells were collected for protein expression analysis of BDNF, BCL2 (BCL2 apoptosis regulator), and BAX (BCL2 associated X, apoptosis regulator), and total/phosphorylated PKA, CaMKII, ERK, PI3K, and CREB. Also, cells were stained with DAPI and assessed for neurite outgrowth as described above.

[2] = DPPH radical-scavenging assay; conditions: compounds 10–160 μM, 100 μM DPPH, 30 min, n = 3
Experimental: Stable free radical 1,1-diphenyl-2-picrylhydrazyl (DPPH) (Sigma-Aldrich) was applied to test the potential radical-scavenging activity of the coumarin-chalcone derivatives. In brief, the compounds (10–160 μM) were added to an ethanol solution containing 100 μM DPPH. The mixture was vortexed for 15 sec, left to stand for 30 min at room temperature, and scavenging capacity was measured at a wavelength of 517 nm using a Multiskan GO microplate spectrophotometer (Thermo Fisher Scientific, Waltham, MA, USA).

Compound	CRE-motif-driven GFP expression [1]	CRE-motif-driven GFP expression ([1]; listed as forskolin)	EC50 [2] [µM]
C=C[C@@]1(C)CC(=O)[C@]2(O)[C@@]3(C)[C@@H](O)CCC(C)(C)[C@@H]3[C@H](O)[C@H](OC(C)=O)[C@@]2(C)O1 [Forskolin, forskolin]	significantly increased	significantly activated	–
O=c1c(O)c(-c2ccc(O)cc2)oc2cc(O)cc(O)c12 [Kaempferol, kaempferol, reference compound]	–	–	28
